# Results: patent US12036224B2, “Formulations, methods, kits, and dosage forms for treating atopic dermatitis and for improved stability of an active pharmaceutical ingredient” (Libertas Bio, Inc., priority 2017, dated 2024)
# Test system: IL-17-SYK mediated CCL20 release, human keratinocytes
# Experiment: Inhibition of IL17 mediated CCL20 release in keratinocytes
# Format: cell-based
# Conditions: single donor, n=3
# Description: In FIG. 12, each bar represents mean and SEM for 3 replicates (n=3) of a single donor. FIG. 13 is a graph showing average weekly change in pruritus (NRS) for a placebo, and Compound 1 in the doses of 20 mg, 40 mg and 80 mg.
structure (smiles),measurement,value
"COc1cc(Nc2ncc(F)c(Nc3ccc4c(n3)NC(=O)C(C)(C)O4)n2)cc(OC)c1OC [Tamatinib, reference compound]",inhibition of IL-17-SYK mediated CCL20 release,"unlike Tamatinib and Tofacitinib, Compound 1 inhibits"
